BindingDB's records for patent US10399948 (Vanderbilt University, 2019)

Biological target: Metabotropic glutamate receptor 5 (Rattus norvegicus, UniProt P31424)
Experiment: mGlu5 Ca2+ Flux Assay
Procedure: HEK 293A cells stably expressing rat mGlu5 were plated in black-walled, clear-bottomed, poly-D-lysine coated 384-well plates in 20 μL of assay medium (DMEM containing 10% dialyzed FBS, 20 mM HEPES, 100 units/mL penicillin/streptomycin plus 250 ng/mL Fungizone, and 1 mM sodium pyruvate) at a density of 20K cells/well. The cells were grown overnight at 37° C. in the presence of 5% CO2. The next day, medium was removed and the cells incubated with 20 μL of […] Fluo-4, AM prepared as a 2.3 mM stock in DMSO and mixed in a 1:1 ratio with 10% (w/v) pluronic acid F-127 and diluted in assay buffer (Hank's balanced salt solution, 20 mM HEPES, and 2.5 mM probenecid) for 45 minutes at 37° C. Dye was removed, 20 μL of assay buffer was added, and the plate was incubated for 5 minutes at room temperature.Ca2+ flux was measured using the Functional Drug Screening System (FDSS7000, Hamamatsu, Japan). After establishment of a fluorescence baseline for about 3 seconds, the compounds of the present invention were added to the cells, and the response in cells was measured. 2.3 minutes later an EC20 concentration of the mGlu5 receptor agonist glutamate was added to the cells, and the response of the cells was measured for 1.9 minutes; an EC80 concentration of agonist was added and readings taken for an additional 1.7 minutes. All test compounds were dissolved and diluted to a concentration of 10 mM in 100% DMSO. Compounds were then serially diluted 1:3 in DMSO into 10 point concentration response curves, transferred to daughter plates, and further diluted into assay buffer to a 2× stock. Calcium fluorescence measures were recorded as fold over basal fluorescence; raw data was then normalized to the maximal response to glutamate. Potentiation of the agonist response of the mGlu5 receptor in the present invention was observed as an increase in response to submaximal concentrations of glutamate in the presence of compound compared to the response to glutamate in the absence of compound. Antagonism of the agonist response of the mGlu5 receptor in the present invention was observed as a decrease in response to nearly maximal concentrations of glutamate in the presence of compound compared to the response to glutamate in the absence of compound.The raw data file containing all time points was used as the data source in the analysis template. This was saved by the FDSS as a tab-delimited text file. Data were normalized using a static ratio function (F/F0) for each measurement of the total 360 values per well divided by each well's initial value. Data were then reduced to peak amplitudes (Max−Initial Min) using a time range that starts approximately 3 seconds prior to the glutamate EC20/EC80 addition and continues for approximately 90-120 seconds. This is sufficient time to capture the peak amplitude of the cellular calcium response. Individual amplitudes were expressed as % EMax by multiplying each amplitude by 100 and then dividing the product by the mean of the amplitudes derived from the glutamate ECMax-treated wells. EC50 values for test compounds were generated by fitting the normalized values versus the log of the test compound concentration (in mol/L) using a 4 parameter logistic equation where none of the parameters were fixed. Each of the three values collected at each concentration of test compound were weighted evenly

Chain of Metabotropic glutamate receptor 5 (P31424 whole entry): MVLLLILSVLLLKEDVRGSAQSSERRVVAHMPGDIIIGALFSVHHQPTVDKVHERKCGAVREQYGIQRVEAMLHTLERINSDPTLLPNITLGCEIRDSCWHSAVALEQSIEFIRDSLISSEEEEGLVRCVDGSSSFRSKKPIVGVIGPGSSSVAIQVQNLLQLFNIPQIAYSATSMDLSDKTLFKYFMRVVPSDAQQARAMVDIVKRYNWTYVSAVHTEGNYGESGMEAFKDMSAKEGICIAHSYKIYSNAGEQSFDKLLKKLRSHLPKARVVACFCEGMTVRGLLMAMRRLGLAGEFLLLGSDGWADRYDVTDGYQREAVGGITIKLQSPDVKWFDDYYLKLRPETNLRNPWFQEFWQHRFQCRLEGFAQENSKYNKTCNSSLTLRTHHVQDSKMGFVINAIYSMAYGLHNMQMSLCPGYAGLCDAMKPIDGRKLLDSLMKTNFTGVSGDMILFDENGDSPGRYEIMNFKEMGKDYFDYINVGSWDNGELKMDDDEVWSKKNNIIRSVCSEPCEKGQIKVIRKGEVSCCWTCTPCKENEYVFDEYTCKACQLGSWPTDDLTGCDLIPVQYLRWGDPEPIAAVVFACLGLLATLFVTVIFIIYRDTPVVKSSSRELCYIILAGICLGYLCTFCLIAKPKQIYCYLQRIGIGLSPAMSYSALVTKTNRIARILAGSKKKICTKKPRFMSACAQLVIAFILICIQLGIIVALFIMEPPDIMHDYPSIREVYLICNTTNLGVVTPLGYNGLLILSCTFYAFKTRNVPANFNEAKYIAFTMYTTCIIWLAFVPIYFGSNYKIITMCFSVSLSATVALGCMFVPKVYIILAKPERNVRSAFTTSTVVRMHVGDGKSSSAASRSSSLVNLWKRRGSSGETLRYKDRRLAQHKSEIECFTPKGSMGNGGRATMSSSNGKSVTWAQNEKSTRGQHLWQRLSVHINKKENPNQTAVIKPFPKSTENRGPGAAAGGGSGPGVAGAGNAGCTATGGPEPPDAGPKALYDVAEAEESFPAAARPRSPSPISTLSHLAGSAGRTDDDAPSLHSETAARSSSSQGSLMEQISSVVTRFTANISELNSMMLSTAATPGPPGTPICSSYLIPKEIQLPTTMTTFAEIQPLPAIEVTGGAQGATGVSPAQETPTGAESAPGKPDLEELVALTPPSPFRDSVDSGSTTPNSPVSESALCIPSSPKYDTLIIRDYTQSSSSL

| SMILES | IC50 [µM] |
| --- | --- |
| O=c1nc(OCCOc2ccccc2)ccn1-c1cccc(F)c1 [US10399948, Compound 14] | 3.54 |
| O=c1nc(OCCOc2ccccc2)ccn1-c1ccc(F)c(F)c1 [US10399948, Compound 15] | 0.427 |
| O=c1nc(OCCOc2ccccc2)ccn1-c1ccc(F)cc1 [US10399948, Compound 17] | 1.19 |
| N#Cc1cccc(-n2ccc(OCCOc3ccccc3)cc2=O)c1 [US10399948, Compound 22] | 6.02 |
| N#Cc1cc(F)cc(-n2ccc(OCCOc3ccccc3)cc2=O)c1 [US10399948, Compound 23] | 1.31 |
| O=c1cc(OCCOc2cc(Cl)ccn2)ccn1-c1ccc(F)cc1 [US10399948, Compound 49] | 8.8 |
| O=c1cc(OCCOc2ncccc2Cl)ccn1-c1ccc(F)cc1 [US10399948, Compound 54] | 7.82 |
